Source: patent US20230013669A1, “Antibacterial Treatment Using a Cannabinoid and an Active Agent” (priority 2019, published 2023)
In brackets after ≈: the same amount, converted by molar mass. Several values for one entry are separate records, joined by “and”; a condition that tells them apart may be missing. Identical values can stand only once. Like-named read-outs stand apart in the source and are kept apart here.

Columns and labels:
Type in all cases: cell-based
[1] = tested on: Klebsiella pneumoniae ATCC 13883 (GN_003 / GN_004); experiment: Synergy of cannabidiol with cell-wall disrupting agent (CBD MIC in combination, FICI); conditions: for FICI: calculated using MIC of 256 μg/mL for cannabidiol; for MIC: Klebsiella pneumoniae
Experimental: The compounds were stored short term at 4° C.
Analysis was performed using Microsoft Excel.

[2] = tested on: Acinetobacter baumannii AL1851, IpxA mutant; Lipid A deficient (GN_237); experiment: MIC broth microdilution, 96-well, visual reading (Example 11)
Experimental: (§1) The experiment was performed to investigate the antimicrobial activity of cannabidiol (CBD) against an LPS deficient strain (GN_237 Acinetobacter baumannii, IpxA mutant; Lipid A deficient; obtained by colistin selection from base strain ATCC 19606) and its parent strain (GN_034, Acinetobacter baumannii, ATCC 19606).
(§2) All plates had flat bottom wells and were covered with low-evaporation lids.
(§3) Two biological replicates ×2 technical replicates were conducted on separate days (final n=4). Inhibition of bacterial growth was determined visually, where the MIC was recorded as the lowest compound concentration with no visible growth.

[3] = tested on: Acinetobacter baumannii ATCC 19606 Type Strain (GN_034); experiment: as above
Experimental: as §1, §2, §3

C=C(C)C1CCC(C)=CC1c1c(O)cc(CCCCC)cc1O (centres unmarked) [Cannabidiol, 2-[3-methyl-6-(1-methylethenyl)-2-cyclohexen-1-yl]-5-pentyl-1,3-benzenediol]
CBD MIC with Ceftazidime ([1]; Ceftazidime at 0.5 μg/mL as headed in Table 64, Klebsiella pneumoniae ATCC 700603): 0.001 µg/mL | CBD MIC with Ceftazidime ([1]; Ceftazidime at 4 μg/mL (Table 66), Klebsiella pneumoniae ATCC 700603): >32 µg/mL | CBD MIC with Ceftazidime ([1]; Ceftazidime at 8 μg/mL (Table 66), Klebsiella pneumoniae ATCC 700603): >32 µg/mL | CBD MIC with Ceftazidime ([1]; Ceftazidime at 16 μg/mL (Table 66), Klebsiella pneumoniae ATCC 700603): >32 µg/mL | CBD MIC with Ceftazidime ([1]; Ceftazidime at 32 μg/mL (Table 66), Klebsiella pneumoniae ATCC 700603): >32 µg/mL | CBD MIC with Ceftazidime ([1]; Ceftazidime at 64 μg/mL (Table 66), Klebsiella pneumoniae ATCC 700603): 0.001 µg/mL | CBD MIC with Ceftazidime ([1]; Ceftazidime at 128 μg/mL (Table 66), Klebsiella pneumoniae ATCC 700603): 0.001 µg/mL | CBD MIC with Cefuroxime ([1]; Cefuroxime at 32 μg/mL, Klebsiella pneumoniae ATCC 700603): 0.001 µg/mL | CBD MIC with Colistin ([1]; Colistin at 0.5 μg/mL, Klebsiella pneumoniae ATCC 700603): 0.001 µg/mL | CBD MIC with Colistin ([1]; Colistin at 1 μg/mL, Klebsiella pneumoniae ATCC 700603): 0.001 µg/mL | activity of cannabidiol combined with octapeptin MCC_006442 ([1]; Example 4): effective | activity of cannabidiol in combination with octapeptin MCC_006442 ([1]; Example 7): effective | activity of cannabidiol combined with cefuroxime ([1]; Example 12): effective | activity of cannabidiol combined with colistin ([1]; Example 14): effective | activity of cannabidiol combined with octapeptin MCC_006442 ([1]; Example 15): effective | activity of cannabidiol combined with ceftazidime ([1]; Example 16): effective | activity of cannabidiol combined with cefotetan ([1]; Example 17): effective | activity of cannabidiol combined with aztreonam ([1]; Example 18): effective | activity of cannabidiol combined with octapeptin C4 ([1]; Example 21): effective | activity of cannabidiol in combination with Spero Potentiator SPR741 ([1]; Example 22): effective | activity of cannabidiol in combination with octapeptin FADDI-287 ([1]; Example 23): effective | activity of cannabidiol in combination with MCC_8980 ([1]; Example 24): effective | FICI range ([1]; Klebsiella pneumoniae ATCC 700603 (so in the source), CBD with FADDI-287, MIC table (Table 95)): 0.16-4 | FICI range ([1]; Klebsiella pneumoniae ATCC 700603 (so in the source), CBD with FADDI-287, Synergy table (Table 97)): 0.16-0.5 | FICI range ([1]; Klebsiella pneumoniae ATCC 700603 (so in the source), CBD with MCC_8980, MIC table (Table 99), listed as CBD): 0.31-1.13 and 0.38-1.13 | FICI range ([1]; Klebsiella pneumoniae ATCC 700603 (so in the source), CBD with MCC_8980, Synergy table (Table 101), listed as CBD): 0.31 and 0.38 | FICI range ([1]; Klebsiella pneumoniae ATCC 700603 (so in the source), CBD with Spero Potentiator SPR741, MIC table (Table 91), listed as CBD): 0.08-1.03 and 0.09-1.03 and 0.16-1.06 and 0.14-1.06 | FICI range ([1]; Klebsiella pneumoniae ATCC 700603 (so in the source), CBD with Spero Potentiator SPR741, Synergy table (Table 93), listed as CBD): 0.08-0.27 and 0.09-0.27 and 0.16-0.27 and 0.14-0.26 | CBD MIC with MCC_8980 ([1]; Klebsiella pneumoniae ATCC 700603 (so in the source), MCC_8980 at 16 μg/mL, listed as CBD): 32 µg/mL | CBD MIC with Spero Potentiator SPR741 ([1]; Klebsiella pneumoniae ATCC 700603 (so in the source), SPR741 at 8 μg/mL, listed as CBD): 4 µg/mL and 8 µg/mL | FICI ([1]; Klebsiella pneumoniae ATCC 700603 (so in the source), cannabidiol with FADDI-287 at 0.25 μg/mL): 0.2539 | FICI ([1]; Klebsiella pneumoniae ATCC 700603 (so in the source), cannabidiol with FADDI-287 at 0.5 μg/mL): 0.5 | FICI ([1]; Klebsiella pneumoniae ATCC 700603 (so in the source), cannabidiol with FADDI-287 at 1 μg/mL): 1 | FICI ([1]; Klebsiella pneumoniae ATCC 700603 (so in the source), cannabidiol with FADDI-287 at 2 μg/mL): 2 | FICI ([1]; Klebsiella pneumoniae ATCC 700603 (so in the source), cannabidiol with FADDI-287 at 4 μg/mL): 4 | FICI ([1]; Klebsiella pneumoniae ATCC 700603 (so in the source), cannabidiol with MCC_8980 at 1 μg/mL): 1.016 | FICI ([1]; Klebsiella pneumoniae ATCC 700603 (so in the source), cannabidiol with MCC_8980 at 2 μg/mL): 1.031 | FICI ([1]; Klebsiella pneumoniae ATCC 700603 (so in the source), cannabidiol with MCC_8980 at 4 μg/mL): 1.0625 | FICI ([1]; Klebsiella pneumoniae ATCC 700603 (so in the source), cannabidiol with MCC_8980 at 8 μg/mL): 1.125 | FICI ([1]; Klebsiella pneumoniae ATCC 700603 (so in the source), cannabidiol with MCC_8980 at 16 μg/mL): 0.375 and 0.3125 | FICI ([1]; Klebsiella pneumoniae ATCC 700603 (so in the source), cannabidiol with SPR741 at 0.5 μg/mL): 1.004 | FICI ([1]; Klebsiella pneumoniae ATCC 700603 (so in the source), cannabidiol with SPR741 at 1 μg/mL): 1.016 | FICI ([1]; Klebsiella pneumoniae ATCC 700603 (so in the source), cannabidiol with SPR741 at 2 μg/mL): 1.031 | FICI ([1]; Klebsiella pneumoniae ATCC 700603 (so in the source), cannabidiol with SPR741 at 2 μg/mL, listed as cannabidiol): 1.016 | FICI ([1]; Klebsiella pneumoniae ATCC 700603 (so in the source), cannabidiol with SPR741 at 4 μg/mL): 1.031 and 1.0625 | FICI ([1]; Klebsiella pneumoniae ATCC 700603 (so in the source), cannabidiol with SPR741 at 8 μg/mL): 0.09375 and 0.1406 and 0.07812 | MIC ([1]; ATCC13883, read-out: CBD MIC with octapeptin MCC_006442 at concentration 2 μg/mL, Example 4, GN_003): 1 µg/mL | MIC ([1]; ATCC13883, read-out: CBD MIC with octapeptin MCC_006442 at concentration 4 μg/mL, Example 4, GN_003): 0.25 µg/mL | MIC ([1]; ATCC 13883 / ATCC 700603, Klebsiella pneumoniae ATCC 700603 (so in the source), FADDI-287 at 0.25 μg/mL, read-out: CBD MIC with FADDI-287): 1 µg/mL | MIC ([1]; ATCC 13883 / ATCC 700603, Klebsiella pneumoniae ATCC 700603 (so in the source), FADDI-287 at 0.5 μg/mL, read-out: CBD MIC with FADDI-287): 0.001 µg/mL | MIC ([1]; ATCC 13883 / ATCC 700603, Klebsiella pneumoniae ATCC 700603 (so in the source), FADDI-287 at 1 μg/mL, read-out: CBD MIC with FADDI-287): 0.001 µg/mL | MIC ([1]; ATCC 13883 / ATCC 700603, Klebsiella pneumoniae ATCC 700603 (so in the source), FADDI-287 at 2 μg/mL, read-out: CBD MIC with FADDI-287): 0.001 µg/mL | MIC ([1]; ATCC 13883 / ATCC 700603, Klebsiella pneumoniae ATCC 700603 (so in the source), FADDI-287 at 4 μg/mL, read-out: CBD MIC with FADDI-287): 0.001 µg/mL | MIC ([1]; ATCC 13883 / ATCC 700603, Klebsiella pneumoniae ATCC 700603 (so in the source), MCC_8980 at 16 μg/mL, read-out: CBD MIC with MCC_8980): 16 µg/mL | MIC ([1]; ATCC 13883 / ATCC 700603, Klebsiella pneumoniae ATCC 700603 (so in the source), Spero SPR206 at 0.007 μg/mL, read-out: CBD MIC with Spero SPR206): ≥ 32 µg/mL | MIC ([1]; ATCC 13883 / ATCC 700603, Klebsiella pneumoniae ATCC 700603 (so in the source), Spero SPR206 at 0.015 μg/mL, read-out: CBD MIC with Spero SPR206): ≥ 32 µg/mL | MIC ([1]; ATCC 13883 / ATCC 700603, Klebsiella pneumoniae ATCC 700603 (so in the source), Spero SPR206 at 0.031 μg/mL, read-out: CBD MIC with Spero SPR206): ≥ 32 µg/mL | MIC ([1]; ATCC 13883 / ATCC 700603, Klebsiella pneumoniae ATCC 700603 (so in the source), Spero SPR206 at 0.062 μg/mL, read-out: CBD MIC with Spero SPR206): ≥ 32 µg/mL | MIC ([1]; ATCC 13883 / ATCC 700603, Klebsiella pneumoniae ATCC 700603 (so in the source), Spero SPR206 at 4 μg/mL, read-out: CBD MIC with Spero SPR206): 0.001 µg/mL | MIC ([1]; ATCC 13883 / ATCC 700603, MCC_6442 at 2 μg/mL, Klebsiella pneumoniae ATCC 700603, read-out: CBD MIC with MCC_6442): 1 µg/mL | MIC ([1]; ATCC 13883 / ATCC 700603, MCC_6442 at 4 μg/mL, Klebsiella pneumoniae ATCC 700603, read-out: CBD MIC with MCC_6442): 0.25 µg/mL | MIC ([1]; ATCC13883 / ATCC700603, read-out: CBD MIC with FADDI-287, Klebsiella pneumoniae ATCC 700603 (so in the source), FADDI-287 at […]): 8 µg/mL | MIC ([2]; Acinetobacter baumannii, read-out: MIC (Test results), Example 11 Table 41, GN_237, n=4 replicates): 0.25 µg/mL (≈ 0.795 µM) | activity alone ([2]; Example 11, Lipid A deficient GN_237): effective | MIC (Test results) ([2]; Example 11 Table 41, GN_237, n=4 replicates): 0.25 μg/mL and 0.125 μg/mL (2×) | MIC ([3]; Acinetobacter baumannii, ATCC19606, Example 11 Table 41, GN_034, n=4 replicates, read-out: MIC (Test results)): > 128 µg/mL | activity alone ([3]; Example 11, parent strain GN_034): ineffective | MIC (Test results) ([3]; Example 11 Table 41, GN_034, n=4 replicates): >128 µg/mL
